Patent publication US20130184302A1, “METHODS FOR TREATING IRRITABLE BOWEL SYNDROME (IBS) AND INFECTIONS” (priority 2011, published 2013)
Like-named read-outs stand apart in the source and are kept apart here.

Legend:
subjects with IBS = assay: Analysis of two studies after 3 months: global IBS symptoms, abdominal pain, bloating responders; format: in vivo, human; details: for Global IBS symptoms: at least 2 out of 4 weeks adequate relief during weeks 3 through 6 (weekly question): 550 mg TID 14 days
Description: A measure of efficacy is based on subjects' answers to the Weekly Subject Global Assessment (SGA) questions over the study duration in relation to their IBS symptoms.
The study endpoints of the studies were Global IBS symptoms and AUC in abdominal pain during the study.
The primary and secondary endpoints evaluated in this study were the effect of treatment on the percentage of subjects who reported adequate relief of Global IBS symptoms, reduction in abdominal pain and the adequate relief of IBS symptom of bloating.

[1] = test system: C. difficile infection (CDI); assay: CDI trial: efficacy adjusting for concomitant medication usage; format: in vivo, human
Description: Table 48 sets forth the efficacy adjusting for concomitant medication usage.

[2] = test system: C. difficile infection (CDI); assay: CDI trial: recurrence of CDI, recurrence rate per person-year; format: in vivo, human
Description: Recurrence was defined to be a diarrhea and a positive C. diff stool toxin assay that occurred after initial clinical success.

subjects with d-IBS = assay: Designed study of 14-day oral rifaximin 550 mg TID in d-IBS (Example 2); format: in vivo, human; details: oral rifaximin 550 mg TID 14 days
Description: A measure of efficacy is based on subjects' answers to the Weekly Subject Global Assessment (SGA) questions over the 4 week study duration in relation to their IBS symptoms.

IBS patients = details: cited from earlier work
[3] = test system: C. difficile infection (CDI); assay: CDI trial rifaximin 400 mg TID vs vancomycin 125 mg QID: clinical success at Test of Cure; format: in vivo, human
Description: Criteria for entry into the trial were: • Age>=18 years old; • Had acute diarrhea at screening defined as >=3 unformed stools in the last 24 hours and at least one sign of enteric infection (fever, nausea, lose of appetite, vomiting, severe abdominal pain/discomfort); and • a positive C. diff stool toxin assay
The primary efficacy endpoint of the study was defined as the proportion of subjects achieving clinical success. Specifically, clinical success was defined as the absence of severe abdominal pain at Test of Cure (TOC), absence of fever (<38° C.) at TOC, and <3 unformed stools for two consecutive days at TOC.
The non-inferiority margin for the primary endpoint was defined as lower bound of 95% CI of delta above −15%.
Clinical success was defined as the: Absence of severe abdominal pain at TOC, absence of fever (<38° C.) at TOC, and <3 unformed stools for two consecutive days at TOC. Test of cure defined as Day 14+/−1 day.

[4] = Rifaximin N = 109, Vancomycin N = 112
[5] = Rifaximin N = 117, Vancomycin N = 115
[6] = after initial clinical success, Rifaximin N = 67, Vancomycin N = 73
[7] = all subjects, Rifaximin N = 117, Vancomycin N = 115
[8] = Pimentel, et al., responders/treated
[9] = Yang, et al, responders/treated
[10] = at TOC (Day 14+/−1), Rifaximin N = 117, Vancomycin N = 115

With `CO[C@H]1/C=C/O[C@@]2(C)Oc3c(C)c(O)c4c(O)c(c5c(nc6cc(C)ccn65)c4c3C2=O)NC(=O)/C(C)=C\C=C\[C@H](C)[C@H](O)[C@@H](C)[C@@H](O)[C@@H](C)[C@H](OC(C)=O)[C@@H]1C` [Rifaximin, (2S,16Z,18E,20S,21S,22R, 23R,24R,25S,26S,27S,28E)-5,6,21,23,25 Pentahydroxy-27-methoxy-2,4,11,16,20,22,24,26-octamethyl-2,7-(epoxypentadeca-(1,11,13)trienimino) benzofuro (4,5-e) pyrido(1,2,-a) benzimidazole-1,15(2H)-dione,25-acetate] the “Responders: Overall reduction of mean weekly abdominal pain by > = 50%” value (subjects with IBS; Study [1]) was 28% vs 36%, the “Responders: Overall reduction of mean weekly abdominal pain by > = 75%” value (subjects with IBS; Study [1]) was 10% vs 14% and the “Responders: Overall reduction of median weekly abdominal pain by > = 25%” value (subjects with IBS; Study [1]) was 52% vs 63%. For the same compound, the “Responders: Overall reduction of median weekly abdominal pain by > = 50%” value (subjects with IBS; Study [1]) was 34% vs 44%, the “Responders: Overall reduction of median weekly abdominal pain by > = 75%” value (subjects with IBS; Study [1]) was 19% vs 23% and the “Responders: Abdominal pain reduction of 1 point in median” value (subjects with IBS; Study [1], at least 2 weeks during PEP) was 52% vs 63%. For the same compound, the “Responders: Daily abdominal pain <2” value (subjects with IBS; Study [1], at least 50% of days in a week for at least 2 weeks during PEP) was 32% vs 40%, the “Global IBS symptoms: at least 2 out of 4 weeks adequate relief during weeks 3 through 6 (weekly question)” value (shortened to “Global IBS symptoms: at least 2 out”) (subjects with IBS; first column (Study 1), second figure of 'x vs y') was 41% and the “Global IBS symptoms: at least 2 out” value (subjects with IBS; second column (Study 2)) was 41%. For the same compound, the “Global IBS symptoms: at least 2 out” value (subjects with IBS; third column (Combined)) was 41%, the “Diarrhea: No, number of subjects” value [1, 4] was 71 and the “Diarrhea: No, percent of subjects” value [1, 4] was “(65%)”. For the same compound, the “Diarrhea: Yes, number of subjects” value [1, 4] was 38, the “Diarrhea: Yes, percent of subjects” value [1, 4] was “(35%)” and the “Clinical Success: No, number of subjects” value [1, 5] was 59. The “Clinical Success: No, percent of subjects” value [1, 5] was “(50%)”, the “Clinical Success: Yes, number of subjects” value [1, 5] was 58 and the “Clinical Success: Yes, percent of subjects” value [1, 5] was “(50%)”. For the same compound, the “Clinical Success: Treatment Difference” value ([1]; Rifaximin vs Vancomycin) was −10.4%, the “Diarrhea: Treatment Difference” value ([1]; Rifaximin vs Vancomycin) was −8.1% and the “Recurrence Rate per Person-Year Exposure” value [2, 5] was 0.613. For the same compound, the “Recurrence of CDI: Treatment Difference” value ([2]; Rifaximin vs Vancomycin, subjects with initial clinical success) was 4.7%, the “No Recurrence of CDI, number of subjects” value [2, 6] was 61 and the “No Recurrence of CDI, percent of subjects” value [2, 6] was “(91%)”. For the same compound, the “Recurrence of CDI, number of subjects” value [2, 6] was 6, the “Recurrence of CDI, percent of subjects” value [2, 6] was “(9%)” and the “Recurrence: No, number of subjects” value [2, 7] was 111. For the same compound, the “Recurrence: No, percent of subjects” value [2, 7] was “(95%)”, the “Recurrence: Yes, number of subjects” value [2, 7] was 6 and the “Recurrence: Yes, percent of subjects” value [2, 7] was “(5%)”. The “Answers to weekly SGA question on adequate relief of IBS symptom of bloating” value (subjects with d-IBS) was “respond “Yes” more often”, the “Answers to weekly SGA question on adequate relief of IBS symptoms” value (subjects with d-IBS) was “respond “Yes” more often” and the Initial treatment response (IBS patients; Jolley, IBS-D patients, 1200 mg/day for 10 days) was “Initial treatment response: 56% (25/45)”. The “Re-treatment response (at least 1)” value (IBS patients; Jolley, IBS-D patients, 2400 mg/day for 10 days) was “Re-treatment response (at least 1): 54%”, the “Complete (>90%) relief” value (IBS patients; Jolley, IBS-D patients) was “Complete (>90%) relief: 11% (5/45)” and the “Complete (>90%) relief upon re-treatment” value (IBS patients; Jolley, IBS-D patients) was “re-treatment: 13% (3/24)”. The “Re-treatment response (at least 1)” value (IBS patients; Pimentel, et al., 1 to 6 re-treatments) was over 75%, the Initial treatment response (IBS patients; Pimentel, et al., 169 Non-C IBS Patients (Rome III), 400-550 mg TID for 14 days) was “Initial treatment response: 75%” and the Duration of benefit (IBS patients; Pimentel, et al.) was “Duration of benefit is ~4 m”. The “Re-treatment response, First” value (IBS patients; [8]) was 54/65, the “Re-treatment response, Second” value (IBS patients; [8]) was 38/40 and the “Re-treatment response, Third” value (IBS patients; [8]) was 17/18. For the same compound, the Initial treatment response (IBS patients; Weinstock, 99 Non-C IBS Patients (Rome II), 1200-1650 mg/day for 10 days) was “Initial treatment response: 75% (74/99)”, the “Patients who did not require retreatment” value (IBS patients; Weinstock) was 27% did not require retreatment and the “Patients with only 12 retreatment in 2 y” value (IBS patients; Weinstock) was 51% only 12 retreatment in 2 y. For the same compound, the “Patients who maintained response” value (IBS patients; Weinstock, for mean 1.6 y) was 41%, the “Mean time response was maintained” value (IBS patients; Weinstock, in the 41% who maintained response) was 1.6 y and the “Re-treatment response (at least 1)” value (IBS patients; Yang, et al, 1200 mg/day for 10 days) was 100%. The Initial treatment response (IBS patients; Yang, et al, 84 IBS Patients (Rome I), 1200 mg/day for 10 days) was “Initial treatment response: 69% (58/84)”, the “Re-treatment response, First” value (IBS patients; [9]) was 16/16 and the “Re-treatment response, Second” value (IBS patients; [9]) was 4/4. The “Clinical Success: Treatment Difference” value ([3]; Rifaximin vs Vancomycin, at TOC) was −6.2%, the “Clinical Success: Yes, number of subjects” value ([3]; at TOC (Day 14+/−1), Rifaximin 400 mg TID N = 117, Vancomycin 125 mg QID N = 115) was 67 and the “Clinical Success: No, number of subjects” value [3, 10] was 50. The “Clinical Success: No, percent of subjects” value [3, 10] was “(43%)” and the “Clinical Success: Yes, percent of subjects” value [3, 10] was “(57%)”.
